# Measurements taken from article PMC9636186 (Nature Communications, 2022).
# Biological target: T1, IBD (ItcR itaconate-binding domain) (Yersinia pseudotuberculosis, UniProt A0A0H3B558)
# T1 construct: gene YPK_2265
# Conditions: protein:itaconate molar ratio 1:100, Bis-Tris pH 6.5, PEG300, 20 °C; SeMet form 7W06
# T1 sequence (A0A0H3B558 80-292 limits assumed): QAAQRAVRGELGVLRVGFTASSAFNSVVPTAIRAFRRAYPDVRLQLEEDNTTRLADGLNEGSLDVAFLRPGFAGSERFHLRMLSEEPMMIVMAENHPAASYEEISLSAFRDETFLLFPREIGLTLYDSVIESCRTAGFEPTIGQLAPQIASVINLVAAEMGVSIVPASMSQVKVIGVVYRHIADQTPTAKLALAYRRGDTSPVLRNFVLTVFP
smiles,measurement,value
C=C(CC(=O)O)C(=O)O [itaconate],structure of complex,crystal structure of IBD without or with itaconate binding was determined
